# What was measured:
# Format in all cases: cell-based
# rat P2X4 = biological target: T1, rat P2X4 (Rattus norvegicus, UniProt P51577); experiment: FLIPR assay, rat P2X4 1321N1 Astrocytoma cells; details: agonist Mg-ATP 5 μM (EC80)
# T1 sequence (P51577 1-388): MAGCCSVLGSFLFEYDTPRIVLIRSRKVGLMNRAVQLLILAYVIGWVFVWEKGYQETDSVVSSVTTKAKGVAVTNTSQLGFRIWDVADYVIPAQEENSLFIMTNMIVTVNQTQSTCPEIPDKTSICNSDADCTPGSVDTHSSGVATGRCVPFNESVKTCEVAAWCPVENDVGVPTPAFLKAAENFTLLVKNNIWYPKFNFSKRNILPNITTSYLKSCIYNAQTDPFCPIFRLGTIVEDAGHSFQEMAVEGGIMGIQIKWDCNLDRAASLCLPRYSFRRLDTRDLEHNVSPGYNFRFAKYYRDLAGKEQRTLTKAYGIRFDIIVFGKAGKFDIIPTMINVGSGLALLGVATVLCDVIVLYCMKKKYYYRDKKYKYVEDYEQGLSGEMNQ
# Description: (§1) 1321N1 Astrocytoma cells stably expressing human P2X4 or rat P2X4 or mouse P2X4 were plated in Collagen I TC-treated microplate at a seeding density of 10000 cells/well and incubated overnight. P2X4 function was assessed by measuring intracellular calcium changes using the calcium-chelating dye Fluo8-AM (Molecular Devices) on a fluorescent imaging plate reader (FLEX/FLIPR station; Molecular Devices). On the day of the assay, the medium was removed and the cells were incubated for 30 min at 37 °C and 5% CO2 in 30 μL of dye buffer (Hank's balanced salt solution, 10 mM HEPES, 1.8 mM CaCl2, 1 mM MgCl2, 2 mM probenecid, 5 mM D-glucose monohydrate, 5 μM Fluo8-AM, pH=7.4). Compounds diluted in probenecid buffer (Hank's balanced salt solution, 10 mM HEPES, 1.8 mM CaCl2, 1 mM MgCl2, 2 mM probenecid, 5 mM D-glucose monohydrate, pH=7.4) were added in a volume of 10 μL and allowed to incubate for 30 min at room temperature. The final assay DMSO concentration was 0.25%. The agonist, Mg-ATP (Sigma), was added in a volume of 10 μL at a concentration representing the EC80 value. EC80 was determined to be 0.5 μM for human and mouse P2X4 and 5 μM for rat P2X4. The fluorescence was measured for an interval of 120 sec at 2 sec intervals. The excitation and emission wavelengths used to monitor fluorescence were 470-495 nm and 515-575 nm, respectively. The data was analyzed based on the increase in peak relative fluorescence units (RFU) compared to the basal fluorescence and the data was normalized to the agonist control. The compounds were tested in triplicates per plate and mean values were plotted in Excel XLFit to determine IC50 values, percentage of maximal inhibition and the Hill coefficients.
# human P2X4 [1] = biological target: T2, human P2X4 (Homo sapiens, UniProt Q99571); experiment: FLIPR assay, human P2X4 1321N1 Astrocytoma cells; details: agonist Mg-ATP 0.5 μM (EC80)
# T2 sequence (Q99571 1-388): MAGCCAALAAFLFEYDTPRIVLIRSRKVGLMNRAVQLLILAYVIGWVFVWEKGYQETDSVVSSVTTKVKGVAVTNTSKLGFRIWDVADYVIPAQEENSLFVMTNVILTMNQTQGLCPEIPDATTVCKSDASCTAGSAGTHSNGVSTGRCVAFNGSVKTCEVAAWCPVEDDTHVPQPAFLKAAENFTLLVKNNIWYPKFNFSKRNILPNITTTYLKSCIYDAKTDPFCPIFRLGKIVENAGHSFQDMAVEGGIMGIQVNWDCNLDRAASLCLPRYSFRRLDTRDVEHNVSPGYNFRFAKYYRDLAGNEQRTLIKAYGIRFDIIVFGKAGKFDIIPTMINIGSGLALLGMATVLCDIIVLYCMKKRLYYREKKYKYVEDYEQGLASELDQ
# Description: as §1
# mouse P2X4 = biological target: T3, mouse P2X4 (Mus musculus, UniProt Q9JJX6); experiment: FLIPR assay, mouse P2X4 1321N1 Astrocytoma cells; details: agonist Mg-ATP 0.5 μM (EC80)
# T3 sequence (Q9JJX6 1-388): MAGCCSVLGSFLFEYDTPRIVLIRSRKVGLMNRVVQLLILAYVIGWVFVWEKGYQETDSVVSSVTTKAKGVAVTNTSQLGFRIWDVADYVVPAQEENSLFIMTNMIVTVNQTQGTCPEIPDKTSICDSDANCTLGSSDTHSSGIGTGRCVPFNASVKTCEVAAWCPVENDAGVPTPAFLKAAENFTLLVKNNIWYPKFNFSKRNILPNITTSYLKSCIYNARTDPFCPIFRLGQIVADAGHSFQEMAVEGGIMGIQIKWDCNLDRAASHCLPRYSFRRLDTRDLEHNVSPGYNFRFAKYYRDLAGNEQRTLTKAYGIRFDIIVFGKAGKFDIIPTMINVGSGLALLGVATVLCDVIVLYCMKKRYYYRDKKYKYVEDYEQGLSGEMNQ
# Description: as §1
# human P2X4 [2] = biological target: T2, human P2X4; experiment: Human P2X4 HEK Cell FLIPR Assay; details: HEK293, HEK293 cells, agonist Bz-ATP at EC80; percentage of maximal inhibition; read-out: Human P2X4 HEK Cells (FLIPR Assay) avg Efficacy [%]
# How it was run: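 Calcium flux read by FLIPR for 120 sec after Bz-ATP challenge at EC80 (established each assay day), following 30 min room-temperature compound preincubation in dye-loaded stable human P2X4 HEK293 cells. Peak RFU over basal normalized to agonist control; IC50, maximal inhibition and Hill coefficient from triplicate means.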
structure (smiles),measurement,setting,value
"NS(=O)(=O)c1cc(NC(=O)Cc2ccccc2Cl)ccc1-n1cc(C(F)(F)F)cn1 [Example 19, 2-(2-Chlorophenyl)-N-{3-sulfamoyl-4-[4-(trifluoromethyl)-1H-pyrazol-1-yl]phenyl}acetamide]",Rat P2X4 1321N1 Astrocytoma Cells (FLIPR Assay) avg Efficacy [%],rat P2X4,57%
same,Human P2X4 1321N1 Astrocytoma Cells (FLIPR Assay) avg Efficacy [%],human P2X4 [1],60%
same,Mouse P2X4 1321N1 Astrocytoma Cells (FLIPR Assay) avg Efficacy [%],mouse P2X4,69%
same,Emax,human P2X4 [2],71%

# From patent US11524938B2, “Aromatic sulfonamide derivatives” (Bayer Pharma Aktiengesellschaft, priority 2016, dated 2022)
